The subject of test [1] is diet-induced and biopsy-confirmed mouse model of NASH. Briefly: Plasma ALT and AST in mouse model of NASH. Type of test: in vivo, mice. Particulars: for plasma alanine transaminase (ALT) (units/L) / plasma aspartate transaminase (AST) (units/L): week 12. The procedure:
SCD-1 inhibitor compounds can be tested in vivo in a rodent diet-induced model of biopsy-confirmed NASH. In this experiment, the NASH phenotype is induced by maintaining mice upon a GAN diet for 33 weeks prior to drug administration (BMC Gastroenterology (2020), 20(1), 210; World Journal of Gastroenterology (2019), 25(33), 4904-4920). A biopsy is performed prior to drug treatment to eliminate any mice that have not developed the NASH phenotype and to mirror clinical trial design where liver biopsies prior to and at the end of treatment are compared. In addition to pre- and post-treatment histological analyses, metabolic assessments such as body weight, body composition, food intake and clinical chemistries are measured during and following the 12-week study dosing period.
Mice were dosed topically to 10% of the total BSA of the skin with either a placebo gel or a gel containing compound 25 (at a concentration of 0.05%, 0.25%, 0.75%, or 2.5%). (World Journal of Gastroenterology (2018), 24(2), 179-194).
Animals and Diet: The Danish Animal Experiments Inspectorate approved all experiments which were conducted using internationally accepted principles for the use of laboratory animals under the personal license #2013-15-2934-00784. B6.V-Lepob/JRj (ob/ob) mice (6 weeks old) were from Janvier Labs (Le Genest Saint Isle, France) and housed in a controlled environment (12h light/dark cycle, lights on at 3 AM, 21+2° C., humidity 50+10%). Each animal was identified by an implantable subcutaneous microchip (PetID Microchip, E-vet, Haderslev, Denmark). Mice had ad libitum access to tap water and the Gubra Amylin NASH diet [GAN diet; 40 kcal-% fat (of these 0% trans-fat and 46% saturated fatty acids by weight), 22% fructose, 10% sucrose, 2% cholesterol; D09100310, Research Diets]. Mice were maintained on the GAN diet for 33 weeks prior to study initiation to induce NASH and remained on the GAN diet during the 12 weeks of drug administration. Mice were weighed daily during the study and body composition was measured by non-invasive EchoMRI scanning using EchoMRI-900 (EchoMRI, Houston, TX).
Plasma Biochemistry Analysis: Blood samples are collected in heparinized tubes and plasma is separated and stored at −80° C. until analysis. Alanine aminotransferase and aspartate aminotransferase (FIG. 12) were measured using commercial kits (Roche Diagnostics) on the Cobas c 501 autoanalyzer according to the manufacturer's instructions.

Test [2] deals with T1, rat SCD-1 (Rattus norvegicus, UniProt P07308).
T1 construct: Rat liver microsomes (RLM, BiolVT); tissue BiolVT; host or cells: rat liver microsomes
T1 sequence (P07308 1-358): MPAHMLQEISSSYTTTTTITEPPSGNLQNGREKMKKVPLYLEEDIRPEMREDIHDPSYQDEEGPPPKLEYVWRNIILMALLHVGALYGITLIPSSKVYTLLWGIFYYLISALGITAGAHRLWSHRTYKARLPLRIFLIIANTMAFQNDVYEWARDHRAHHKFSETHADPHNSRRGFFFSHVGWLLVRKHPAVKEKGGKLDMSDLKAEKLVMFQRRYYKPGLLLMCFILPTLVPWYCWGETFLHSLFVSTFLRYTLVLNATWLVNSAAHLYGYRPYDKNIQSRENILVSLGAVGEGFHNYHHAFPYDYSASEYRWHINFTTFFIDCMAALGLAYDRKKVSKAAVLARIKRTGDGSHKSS
The test can be described thus: Inhibition of SCD-1 activity in rat liver microsomes (13C-stearoyl-CoA to 13C-oleoyl-CoA, LC/MS/MS). Type of test: biochemical. Particulars: FIG. 1, IC50 value not given. The procedure: The ability of the compound to inhibit isolated SCD-1 enzyme activity can be evaluated in rat and human microsomes as described below (Oncotarget (2018), 9, 3-20). The compound is added as various concentrations to the liver microsomes and incubated for 5 minutes with ^13C-labelled Stearoyl CoA, which is the substrate for SCD-1. The activity of SCD-1 is then determined by the conversion of ^13C-Steoryl CoA to ^13C-Oleoyl CoA using an LC/MS/MS method. The ability of the compound to inhibit SCD-1 activity is expressed as an IC50.
Compound 25 is dissolved in DMSO to prepare a 10 mM stock solution.
Rat liver microsomes (RLM, BiolVT) and human liver microsome (HLM, InVitroCYP™ H-class, Pool of 25 donors BiolVT) solutions are prepared by adding the microsomes to 100 mM sodium phosphate, pH 7.4, at a protein concentration of 1.00 mg/mL.
Compound 25 stock solution is then added to the RLM and HLM solution at an initial concentration of 0.2 μM for direct inhibition. Each LM/Inhibitor Solution is added to blank LM solution to give 8 concentrations prepared by a 3-fold serial dilution. These diluted LM/inhibitor solutions are then added to a reaction buffer containing 2 mM NADH, 120 μM Coenzyme A, 2 mM ATP, 2 mM DTT, and 10 mM MgCl2 in 100 mM sodium phosphate, pH 7.4.
A Stearoyl-^13Cis-CoA solution in 10% methanol in water is prepared at a final concentration of 3.00 mM. […]

`O=C(COc1ccc(CO)cc1)N1CC[C@H](Oc2ccccc2C(F)(F)F)C1` [Compound 25, (S)-2-(4-(hydroxymethyl)phenoxy)-1-(3-(2-(trifluoromethyl)phenoxy)pyrrolidin-1-yl)ethan-1-one]: in test [1] (0.75% gel), the “plasma alanine transaminase (ALT) (units/L)” value is “reduction” and the “plasma aspartate transaminase (AST) (units/L)” value is “reduction”. Further, in test [1] (2.5% gel), the “plasma alanine transaminase (ALT) (units/L)” value is reported as “reduction” and the “plasma aspartate transaminase (AST) (units/L)” value was “reduction”. In addition, the “serum ALT and AST” value in test [1] (conclusion, after topical dosing, dose not specified) is recorded as “marked decrease”. Moreover, the “inhibition of rat SCD-1 activity” value in test [2] is on record as “concentration-dependent inhibition”.

The values are drawn from patent publication US20240189275A1, “METHODS FOR TREATING NON-ALCOHOLIC STEATOHEPATITIS WITH A SCD-1 INHIBITOR” (Lipidio Pharmaceuticals, Inc., priority 2021, published 2024).
